Results published in ChEMBL document CHEMBL1201862, “PubChem BioAssay data set” (2004).
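In this assay, cells in 96-well plates receive the compound at five concentrations for 48 hours. Endpoints are linearly interpolated between the surrounding concentrations. At the GI50, growth is halved.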 Activity calls are given as the source filed them. Cut-off read from the data, not from the text of the source: active = GI50 up to about 1.1 µM and inactive = higher.

Assays:
Assay in all cases: NCI-60 cell line screen, 48 h
OVCAR-3 = system: OVCAR-3
UO-31 = system: UO-31
MCF7 = system: MCF7
CCRF-CEM = system: CCRF-CEM
SF-539 = system: SF-539
SN12C = system: SN12C
T47D = system: T47D
DU-145 = system: DU-145
ACHN = system: ACHN
A549 = system: A549
HOP-62 = system: HOP-62
RXF 393 = system: RXF 393
SK-MEL-28 = system: SK-MEL-28
M14 = system: M14
LOX IMVI = system: LOX IMVI
OVCAR-5 = system: OVCAR-5
SF-295 = system: SF-295
MDA-MB-231 = system: MDA-MB-231
NCI-H226 = system: NCI-H226
UACC-257 = system: UACC-257

SMILES | GI50 (OVCAR-3) | GI50 (UO-31) | GI50 (MCF7) | GI50 (CCRF-CEM) | GI50 (SF-539) | GI50 (SN12C) | GI50 (T47D) | GI50 (DU-145) | GI50 (ACHN) | GI50 (A549) | GI50 (HOP-62) | GI50 (RXF 393) | GI50 (SK-MEL-28) | GI50 (M14) | GI50 (LOX IMVI) | GI50 (OVCAR-5) | GI50 (SF-295) | GI50 (MDA-MB-231) | GI50 (NCI-H226) | GI50 (UACC-257)
COc1ccc(C(=O)/C=C/c2ccc(OCC(=O)O)cc2)cc1 | 60.4 µM (inactive) | > 100 µM (inactive) | 42.8 µM (inactive) | 31.7 µM (inactive) | 46.6 µM (inactive) | 71.3 µM (inactive) | 38.4 µM (inactive) | > 100 µM (inactive) | > 100 µM (inactive) | > 100 µM (inactive) | > 100 µM (inactive) | > 100 µM (inactive) | 36.6 µM (inactive) | > 100 µM (inactive) | 33.6 µM (inactive) | > 100 µM (inactive) | > 100 µM (inactive) | 59.2 µM (inactive) |  | 
C=CCn1c(-c2ccc(/N=N/Nc3ccc(-c4n[nH]c(=S)n4CC=C)cc3)cc2)n[nH]c1=S | 2.52 µM (inactive) | 1.83 µM (inactive) | 3.69 µM (inactive) | 3.13 µM (inactive) |  | 3.49 µM (inactive) | 1.11 µM (active) | 3.65 µM (inactive) | 2.21 µM (inactive) | 3.52 µM (inactive) | 3.4 µM (inactive) | 13.9 µM (inactive) | 6.9 µM (inactive) | 3.03 µM (inactive) | 3.4 µM (inactive) | 28 µM (inactive) | 3.39 µM (inactive) | 22 µM (inactive) | 2.32 µM (inactive) | 3.33 µM (inactive)
COc1cc(C(=O)/C=C/c2ccc(OCC#N)cc2)cc(OC)c1OC | 22.2 µM (inactive) | 17.6 µM (inactive) | 9.02 µM (inactive) | 19.4 µM (inactive) | 17.3 µM (inactive) | 18.9 µM (inactive) | 17.3 µM (inactive) | 28.1 µM (inactive) | 23.5 µM (inactive) | 21.4 µM (inactive) | 22.1 µM (inactive) | 18.1 µM (inactive) | 17.3 µM (inactive) | > 10 µM (inactive) |  | 47.5 µM (inactive) | 46.2 µM (inactive) | > 10 µM (inactive) | 23.2 µM (inactive) | 34 µM (inactive)
COc1cc(C)c(S(=O)(=O)N(CCCN)OCCCN)c(C)c1C | 61.9 µM (inactive) | 41.5 µM (inactive) | 19.4 µM (inactive) | 41.2 µM (inactive) |  | 57 µM (inactive) | 29.8 µM (inactive) | 33.7 µM (inactive) | 49.4 µM (inactive) | 68.5 µM (inactive) | 61.7 µM (inactive) | 15.6 µM (inactive) | 38.9 µM (inactive) | 23.6 µM (inactive) | 27.8 µM (inactive) | 85.5 µM (inactive) | 31.3 µM (inactive) | 25.5 µM (inactive) | > 100 µM (inactive) | 21.4 µM (inactive)
COc1cc2c(cc1OC)CCc1cc(OC)c(OC)cc1CC2 | > 100 µM (inactive) | > 100 µM (inactive) | > 100 µM (inactive) | > 100 µM (inactive) | > 100 µM (inactive) | > 100 µM (inactive) | 31.3 µM (inactive) | > 100 µM (inactive) | > 100 µM (inactive) | > 100 µM (inactive) | > 100 µM (inactive) |  | > 100 µM (inactive) | > 100 µM (inactive) | > 100 µM (inactive) | > 100 µM (inactive) | > 100 µM (inactive) | > 100 µM (inactive) | > 100 µM (inactive) | > 100 µM (inactive)
Cc1cccc(NC(=O)CC(=O)N2N=C(N3c4ccccc4Sc4ccccc43)CC2c2ccccc2)c1 (centres undefined) | > 100 µM (inactive) | > 100 µM (inactive) | > 100 µM (inactive) | > 100 µM (inactive) | > 100 µM (inactive) | > 100 µM (inactive) | > 100 µM (inactive) | > 100 µM (inactive) | > 100 µM (inactive) | > 100 µM (inactive) | > 100 µM (inactive) | > 100 µM (inactive) | > 100 µM (inactive) | > 100 µM (inactive) |  | > 100 µM (inactive) | > 100 µM (inactive) | > 100 µM (inactive) | > 100 µM (inactive) | > 100 µM (inactive)
N#Cc1c(NC(=S)Nc2ccccc2)sc2c1CCCC2 | > 100 µM (inactive) | > 100 µM (inactive) | > 100 µM (inactive) |  |  | > 100 µM (inactive) | > 100 µM (inactive) | > 100 µM (inactive) | > 100 µM (inactive) |  | > 100 µM (inactive) | > 100 µM (inactive) | > 100 µM (inactive) |  | > 100 µM (inactive) | > 100 µM (inactive) | > 100 µM (inactive) | > 100 µM (inactive) | > 100 µM (inactive) | > 100 µM (inactive)
COc1cc(C(c2c(O)c3ccccc3oc2=O)c2c(O)c3ccccc3oc2=O)cc(Br)c1O | 15.9 µM (inactive) | 16.4 µM (inactive) | 16.2 µM (inactive) |  | 15.6 µM (inactive) | 15.8 µM (inactive) | 22.8 µM (inactive) | 17.4 µM (inactive) | 17.4 µM (inactive) | 18.4 µM (inactive) | 18.6 µM (inactive) | 17.4 µM (inactive) | 21.6 µM (inactive) | 16.8 µM (inactive) | 16 µM (inactive) | 23.5 µM (inactive) | 21.1 µM (inactive) | 17.8 µM (inactive) | 21.5 µM (inactive) | 17.3 µM (inactive)
Fc1ccc(C(OCCN2CC3CCC(C2)N3CCCc2ccccc2)c2ccc(F)cc2)cc1 | 5.92 µM (inactive) | 7.33 µM (inactive) | 3.39 µM (inactive) | 2.71 µM (inactive) | 1.99 µM (inactive) | 3.81 µM (inactive) | 1.95 µM (inactive) | 8.13 µM (inactive) | 10.6 µM (inactive) | 8.15 µM (inactive) | 6.03 µM (inactive) |  | 8.99 µM (inactive) | 2.48 µM (inactive) | 3.89 µM (inactive) | 10.6 µM (inactive) | 3.15 µM (inactive) | 2.74 µM (inactive) | 3.94 µM (inactive) | 3.33 µM (inactive)
COc1cccc(CCNC(=O)Cc2ccccc2CCO)c1 | > 100 µM (inactive) | > 100 µM (inactive) | > 100 µM (inactive) | > 100 µM (inactive) | > 100 µM (inactive) | > 100 µM (inactive) | > 100 µM (inactive) | > 100 µM (inactive) | > 100 µM (inactive) | > 100 µM (inactive) | > 100 µM (inactive) | > 100 µM (inactive) | > 100 µM (inactive) | > 100 µM (inactive) |  | > 100 µM (inactive) | > 100 µM (inactive) | > 100 µM (inactive) | > 100 µM (inactive) | > 100 µM (inactive)
Cc1nc2ccc(NC3OC(CO)C(O)C(O)C3O)cc2c(=O)n1-c1ccccc1 (centres undefined) | > 100 µM (inactive) | > 100 µM (inactive) | > 100 µM (inactive) |  |  | > 100 µM (inactive) | > 100 µM (inactive) | > 100 µM (inactive) | > 100 µM (inactive) |  | > 100 µM (inactive) | > 100 µM (inactive) | > 100 µM (inactive) |  | > 100 µM (inactive) | > 100 µM (inactive) | > 100 µM (inactive) | > 100 µM (inactive) | > 100 µM (inactive) | > 100 µM (inactive)
O=c1[nH]nc(-c2ccccc2)n1/N=C/c1ccccc1O | 59.4 µM (inactive) | > 100 µM (inactive) | > 100 µM (inactive) |  | 78.2 µM (inactive) | > 100 µM (inactive) | > 100 µM (inactive) | > 100 µM (inactive) | 63.2 µM (inactive) | > 100 µM (inactive) |  | 29.7 µM (inactive) |  |  | > 100 µM (inactive) | > 100 µM (inactive) | 71 µM (inactive) | 70 µM (inactive) | > 100 µM (inactive) | > 100 µM (inactive)
CN(Cc1cccc2ccsc12)/N=C\c1ccc(Cl)cc1 | 10.6 µM (inactive) | 78.3 µM (inactive) | 32.7 µM (inactive) | 31.3 µM (inactive) |  | > 100 µM (inactive) | 49.5 µM (inactive) | > 100 µM (inactive) | > 100 µM (inactive) | 30.4 µM (inactive) | > 100 µM (inactive) | > 100 µM (inactive) | > 100 µM (inactive) | 79.4 µM (inactive) | > 100 µM (inactive) | > 100 µM (inactive) | 30.9 µM (inactive) | > 100 µM (inactive) | 89.9 µM (inactive) | 18.8 µM (inactive)
COc1ccc(C(=O)/C=C/c2ccc(OCCCCCCCCCCOc3ccc(/C=C/C(=O)c4ccc(OC)cc4)cc3)cc2)cc1 |  | > 100 µM (inactive) | > 100 µM (inactive) | > 100 µM (inactive) | > 100 µM (inactive) | > 100 µM (inactive) | > 100 µM (inactive) | > 100 µM (inactive) | > 100 µM (inactive) | > 100 µM (inactive) | > 100 µM (inactive) | > 100 µM (inactive) | > 100 µM (inactive) | > 100 µM (inactive) |  | > 100 µM (inactive) | > 100 µM (inactive) | > 100 µM (inactive) | > 100 µM (inactive) | > 100 µM (inactive)
Brc1ccc(-c2[nH]c3ccccc3c2/N=N\c2ccccc2)cc1 | 12.3 µM (inactive) | 16 µM (inactive) | 16.1 µM (inactive) | > 10 µM (inactive) | 17.4 µM (inactive) | 17.3 µM (inactive) | 16.7 µM (inactive) | 17.5 µM (inactive) | 20.6 µM (inactive) | 16.6 µM (inactive) | 18.1 µM (inactive) | 16.6 µM (inactive) | 21.2 µM (inactive) | 17.5 µM (inactive) | 30.8 µM (inactive) | 18.7 µM (inactive) | 18.8 µM (inactive) | 19.1 µM (inactive) |  | 19.3 µM (inactive)
